Data as given in patent US12528777B2, “Quinazolinones derivatives for treatment of non-alcoholic fatty liver disease, preparation and use thereof” (Council of Scientific and Industrial Research, priority 2020, dated 2026).
“Also recorded” adds a separate entry of the source.

Experiments:
Assay type in all cases: cell-based
HepG2 cells = assay: Confocal microscopy: lipid droplets in oleate induced HepG2 cells; parameters: key to Reduction in Lipid Droplets: + = slight or in insignificant; ++ = Moderate; +++ and ++++ = active; +++ and ++++ = active; +++++ = very active
Method in brief: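 HepG2 cells were loaded with 250 μM oleate and given compound in DMSO (10 μM screen; 10 nM–5 μM dose series) for 24 h; BSA as negative control. Lipid droplets stained with BODIPY/Hoechst, imaged confocally; mean droplets per cell counted over ~20 cells versus oleate-only cells.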

ATGL [1] = assay: Western blot of ATGL level in HepG2 cells; parameters: key to Increase in ATGL level: + = slight or in insignificant; ++ = Moderate; +++ and ++++ = active; +++ and ++++ = active; +++++ = very active; settings: HepG2 cells, western blot, score
Method in brief: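 HepG2 cells were treated with compound 24 h (10 μM screen; 50 nM–5 μM dose series) and lysed. 30 μg protein was western blotted for ATGL, with actin as loading reference. ATGL increase was expressed as percent of the 1.6-fold siCOP1 maximum and plotted against log concentration for EC50.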

ATGL [2] = assay: Immunoprecipitation assay of ATGL ubiquitination in myc-ATGL HepG2 cells; settings: 5 μM, 24 hours, MG-132, poly ubiquitin smear
Procedure: To this end, an immunoprecipitation assay was performed wherein HepG2 cells overexpressing myc-ATGL were transfected with HA-Ubiquitin and treated with 5 μM of the compounds 9, 10, 107, 215, 219 and 238. MG-132, a proteasomal inhibitor, was added 4 hours before harvesting the cells. Immune complexes were pulled down with anti-myc antibody and immunoblot was done using anti-HA antibody. The resultant smears on the blot reflect the ubiquitination status of ATGL.
For checking the change in the ubiquitination status of ATGL on compound treatment, Myc-ATGL expressing HepG2 cells (ATGL overexpressing cell line) was transfected with 2 μg of a plasmid harboring the HA tagged ubiquitin gene using Lipofectamine 2000 reagent (Invitrogen) in OptiMEM media (HiMedia). Fresh DMEM complete media was added after 8-10 hours of transfection. After roughly 24 hours of transfection, 5 μM of the compounds 9, 10 and 107 was added and cells were harvested post 24 hours of treatment. 4 hours prior to cell harvesting, 10 μM of proteasomal inhibitor MG132 (Calbiochem, Merck Millipore) was added to the cells. Proteins were isolated from the cells and protein concentration was estimated as described previously. 30 μl of PureProteome Protein A/G Mix Magnetic Beads (Merck Millipore) was taken in a 1.5 ml microcentrifuge tube, placed in a Magna Rack (Merck Millipore) and allowed to adhere to the side of the tube. 200 μg of protein was used for immunoprecipitation reaction in a reaction volume of 1 ml. 2 μl of anti-Myc primary antibody (Cell Signaling Technology) was added and the tube was incubated overnight at 4° C. in a rotary shaker. The next day, the tube was placed back in the Magna Rack and the beads were allowed to attach to the tube. To remove non-specific and unattached reactants, 1×PBS and 0.1% Triton-X was used for washing. 2× loading dye and Lysis Buffer was added and heated at 95° C. for 10 minutes to allow the immune complex to dislodge from the magnetic beads. Western Blot was performed subsequently as described before with anti-HA primary antibody for immunoblotting (Cell Signaling Technology). The activity trends of the synthesized compounds are disclosed in Table-5.

COP1 = COP1 (Homo sapiens, UniProt Q8NHY2); assay: Immunoprecipitation assay of COP1 autoubiquitination in HepG2 cells; settings: 5 μM, 24 hours, MG-132
Sequence of COP1 (Q8NHY2 whole entry): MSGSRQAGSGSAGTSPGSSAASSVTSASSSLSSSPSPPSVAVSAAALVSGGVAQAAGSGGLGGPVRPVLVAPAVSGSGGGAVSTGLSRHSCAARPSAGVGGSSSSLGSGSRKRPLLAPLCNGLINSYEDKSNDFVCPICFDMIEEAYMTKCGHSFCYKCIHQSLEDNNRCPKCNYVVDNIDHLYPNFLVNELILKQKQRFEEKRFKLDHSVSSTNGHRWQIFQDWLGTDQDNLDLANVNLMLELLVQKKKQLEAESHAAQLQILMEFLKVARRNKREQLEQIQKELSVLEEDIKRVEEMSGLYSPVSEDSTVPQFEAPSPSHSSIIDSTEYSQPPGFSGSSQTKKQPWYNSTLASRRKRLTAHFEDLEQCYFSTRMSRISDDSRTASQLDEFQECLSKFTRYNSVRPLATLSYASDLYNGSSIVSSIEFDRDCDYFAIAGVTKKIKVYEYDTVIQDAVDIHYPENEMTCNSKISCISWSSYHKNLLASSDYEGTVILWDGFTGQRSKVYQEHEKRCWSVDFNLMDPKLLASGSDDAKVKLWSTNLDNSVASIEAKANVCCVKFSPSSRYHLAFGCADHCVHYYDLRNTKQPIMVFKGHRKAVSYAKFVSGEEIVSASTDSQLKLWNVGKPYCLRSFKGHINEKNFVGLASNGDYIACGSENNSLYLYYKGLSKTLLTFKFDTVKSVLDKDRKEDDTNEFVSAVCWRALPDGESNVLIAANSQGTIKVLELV
Procedure: COP1 is capable of auto ubiquitinating its own self and getting degraded via the proteasomal pathway. To probe into this, HepG2 cells were co-transfected with HA tagged Ubiquitin and myc-flag tagged COP1. The transfected cells were treated with 5 μM of compounds 9, 10, 107 and 238 for 24 hours. MG-132, a proteasomal inhibitor, was added 4 hours before harvesting the cells. Immune complexes were pulled down with anti-myc antibody and immunoblot was done using anti-HA antibody. […] Thus, the compounds of the present disclosure could be potent therapeutic targets by being able to block the proteasomal degradation of ATGL which would then be able to carry out its lipolytic action and reverse the symptoms of steatosis.
For checking the autoubiquitination status of COP1, HepG2 cells were cotransfected with 2 μg each of Myc-DDK-COP1 and HA-Ub plasmids using Lipofectamine 2000 reagent (Invitrogen) in OptiMEM media (HiMedia). The rest of the procedure is similar to that done for Myc-ATGL.

ATGL [3] = assay: Reversal of ATGL decrease in COP1 overexpressing HepG2 cells; settings: myc-DDK-COP1, 5 μM, 24 hours
Procedure: COP1 is an E3 ubiquitin ligase with ATGL as one of its targets for ubiquitination and subsequent proteasomal degradation by 26S proteasome. Therefore, it is only legit for ATGL levels to decrease upon COP1 overexpression. To this end, HepG2 cells were transfected with 500 ng of myc-DDK-COP1 plasmid using Lipofectamine 2000 and treated with 5 μM of the compounds 9 and 10 for 24 hours. 48 hours post transfection, cells were harvested and western blot was carried out.

## COCCn1cnc2ccc(NC(=O)Nc3ccc(C(C)=O)cc3)cc2c1=O [Compound 10, 1-(4-acetylphenyl)-3-(3-(2-methoxyethyl)-4-oxo-3,4-dihydroquinazolin-6-yl)urea]
HepG2 cells; HepG2 cells, 250 μM oleate induction
  Number of lipid droplets: decrease in the number of lipid droplets
HepG2 cells; oleate induced HepG2 cells, score
  Reduction in Lipid Droplets: ++++
ATGL [1]
  Increase in ATGL level: ++++
ATGL [2]
  ATGL ubiquitination in HepG2 cells: reduction, however, could not be seen
COP1
  COP1 autoubiquitination in HepG2 cells: markedly reduce COP1's auto ubiquitination property
ATGL [3]
  Restoration of ATGL level upon COP1 overexpression: could restore the reduced ATGL level; also recorded: could restore ATGL to its normal level
